Measured values from US20080200405A1, “Drug Resistance Reversal In Neoplastic Disease” (priority 2007, published 2008).
Where a name gives a salt, the structure may show the parent alone.

How the values were obtained:
TNFα = test: Measurement of LPS Induced-TNFα in THP-1 Cells; type: cell-based, human; settings: Homo sapiens, THP-1; read-out: TNFalpha IC50
Method: The lipid peroxidation assay method of Ohkawa, H.; Ohishi, N.; Yaki, K. Anal. Biochem. 1979, 95, 351 was used to evaluate […]. […] […] Cells were collected and spun at 1500 g for 10 minutes. Supernatant was collected and analyzed for TNFα.
Mean Percent Inhibition of TNF-alpha by compounds of the present invention is set forth in Table B. TNF-alpha inhibition data is set forth in Table B-1. OT-551 was used in both native form and in the form of nanoparticles. […] Other nitrogenous heterocyclic species of the invention are expected to show similar improvement in efficacy when disposed in nanoparticulate form.

[1] = system: Doxorubicin resistant SaOS2 cells; test: Cancer cell viability (MTT) in the presence or absence of doxorubicin; type: cell-based, human; settings: compound 50 ug/mL, 3 days

Row | IC50 (TNFα) [µM] | melting point | SMILES | Mean OD (×10^−3), MTT viability ([1]; Dox. 10^−6 M (+)) | Mean OD (×10^−3), MTT viability ([1]; absence of Dox. (−))
1 | ≥ 100 |  | CC1(C)CC(c2nn[nH]n2)CC(C)(C)N1O.Cl [Compound 30, 1-hydroxy-2,2,6,6-tetramethyl-4-(2H-tetrazol-5-yl)piperidine hydrogen chloride] | 310.00 ×10^−3 | 1301.25 ×10^−3
2 | 38.2 |  | CC1(C)CC(NC(=O)C2CC2)CC(C)(C)N1O.Cl [Compound 31, N-(1-hydroxy-2,2,6,6-tetramethylpiperidin-4-yl)cyclopropanecarboxamide hydrogen chloride] | 322.25 ×10^−3 | 1175.25 ×10^−3
3 | ≥ 100 | 220 °C (dec.) | CC1(C)CC(O)(c2ccc(F)cc2)CC(C)(C)N1O.Cl [Compound 57, 4-(4-Fluorophenyl)-1-hydroxyl-2,2,6,6-tetramethylpiperidin-4-ol hydrochloride] | 426.25 ×10^−3 | 1078.50 ×10^−3
4 | 2.4 |  | CC1(C)CC(CO)CC(C)(C)N1O.Cl [Compound 34, (1-hydroxy-2,2,6,6-tetramethylpiperidin-4-yl)methanol hydrogen chloride] | 302.75 ×10^−3 | 1168.25 ×10^−3
5 | ≥ 100 | 220.8 °C (dec.) | CC1(C)CC(Oc2nsnc2-c2ccccc2)CC(C)(C)N1O.Cl [Compound 44, 1-hydroxy-4-(4-phenyl-1,2,5-thiadiazol-3-yloxy)-2,2,6,6-tetramethylpiperidine hydrochloride] | 13.25 ×10^−3 | 23.00 ×10^−3
6 |  | 160 °C (dec.) | CC1(C)CC(Oc2nc3ccccc3s2)CC(C)(C)N1O.Cl |  | 
7 |  | 155.7 °C (dec.) | CC1(C)C=C(COc2ccccc2N2CCOCC2)C(C)(C)N1O.Cl |  | 
8 | ≥ 100 |  | CC1(C)C=C(c2ccc(F)cc2)CC(C)(C)N1O [Compound 62, hydrochloride] | 40.25 ×10^−3 | 184.75 ×10^−3
9 | ≥ 100 |  | CC1(C)c2ccc(N3CCOCC3)cc2C(C)(C)N1O [Compound 66, 2-hydroxy-1,1,3,3-tetramethyl-5-morpholinoisoindoline hydrochloride] |  | 
10 |  | 198.1 °C (dec.) | CC1(C)CC(Oc2nsnc2N2CCN(C(=O)c3ccco3)CC2)CC(C)(C)N1O.Cl |  | 
11 | 0.9 | 187 °C (dec.) | CCCCC1(O)CC(C)(C)N(O)C(C)(C)C1.Cl [Compound 41, 1,4-dihydroxy-4-n-butyl-2,2,6,6-tetramethylpiperidine hydrochloride] | 261.25 ×10^−3 | 824.75 ×10^−3
12 |  | 155.5 °C (dec.) | CC1(C)CC(O)C(C)(C)N1O (centres unmarked) (as salt: salt) [Compound 7, 2,2,5,5-Tetramethyl-pyrrolidine-1,3-diol] |  | 
13 |  | 183 °C (dec.) | CC1(C)CC(Nc2nc3ccccc3s2)CC(C)(C)N1O.Cl |  | 
14 | ≥ 100 |  | CC1(C)CC(=O)C(C)(C)N1O.Cl [Compound 37, 1-hydroxy-2,2,5,5-tetramethylpyrrolidin-3-one hydrogen chloride] | 366.25 ×10^−3 | 1329.75 ×10^−3
15 |  | 214.1 °C | CC1(C)c2ccc(Br)cc2C(C)(C)N1O.Cl |  | 
16 | 12 |  | CC1(C)CC(=CC(=O)N2CCN(c3ccccc3)CC2)CC(C)(C)N1O [Compound 56, hydrochloride] | 308.75 ×10^−3 | 1153.00 ×10^−3
17 |  | 220 °C (dec.) | COc1ccc2nc(NC3CC(C)(C)N(O)C(C)(C)C3)sc2c1.Cl |  | 
18 | 30.9 |  | CC1(C)C=C(CO)CC(C)(C)N1O.Cl [Compound 25, 1-hydroxy-1,2,3,6-tetrahydro-2,2,6,6-tetramethylpyridin-4-yl)methanol hydrogen chloride] |  | 
19 | 55.7 |  | CC1(C)CC(CO)C(C)(C)N1O.Cl (centres unmarked) [Compound 33, 1-hydroxy-2,2,5,5-tetramethylpyrrolidin-3-yl)methanol hydrogen chloride] |  | 
20 |  | 179.2 °C (dec.) | CC1(C)CC(Oc2nsnc2C#N)CC(C)(C)N1O (as salt: hydrochloride) [Compound 45] |  | 
21 |  | 209.1 °C (dec.) | CC1(C)CC(Oc2nsnc2C(=O)O)CC(C)(C)N1O.Cl |  | 
22 | 3 |  | CN1CCN(c2nsnc2OC2CC(C)(C)N(O)C(C)(C)C2)CC1.Cl.Cl [Compound 52, dihydrochloride] |  | 
23 |  | 178.3 °C (dec.) | CC1(C)CC(NS(C)(=O)=O)CC(C)(C)N1O (as salt: salt) [Compound 10, 1-hydroxy-4-methanesulfonamido-2,2,6,6-tetramethylpiperidine] |  | 

Further lines, the compound ahead of its results:

Row | SMILES | IC50 (TNFα) [µM] | melting point | Mean OD (×10^−3), MTT viability ([1]; Dox. 10^−6 M (+)) | Mean OD (×10^−3), MTT viability ([1]; absence of Dox. (−))
24 | COc1cc2c(cc1OC)CN(c1nsnc1OC1CC(C)(C)N(O)C(C)(C)C1)CC2.Cl |  | 166.9 °C (dec.) |  | 
25 | COc1cc(CNC2CC(C)(C)N(O)C(C)(C)C2)cc(OC)c1OC.Cl.Cl [Compound 58, N-(3,4,5-trimethoxybenzyl)-1-hydroxy-2,2,6,6-tetramethylpiperidin-4-amine dihydrochloride] |  | 181 °C | 291.50 ×10^−3 | 1207.00 ×10^−3
26 | CN1CCN(c2nsnc2OC2CC(C)(C)N(O)C(C)(C)C2)CC1.Cl.Cl [Compound 52] |  |  | 195.00 ×10^−3 | 1186.33 ×10^−3
27 | CC1(C)CC(Oc2nsnc2N2CCN(c3ccccc3)CC2)CC(C)(C)N1O.Cl.Cl [Compound 53, 4-(4-phenylpiperazin-1-yl)-3-[(2,2,6,6-tetramethyl-1-hydroxypiperidinyl)-4-oxy]-1,2,5-thiadiazole hydrochloride] |  |  | 170.00 ×10^−3 | 1333.75 ×10^−3
28 | CC1(C)CC(NC(=O)CCN2CCOCC2)CC(C)(C)N1O.Cl [Compound 26, N-(1-hydroxy-2,2,6,6-tetramethylpiperidin-4-yl)-3-morpholinopropanamide hydrogen chloride] | ≥ 100 |  | 261.50 ×10^−3 | 1056.33 ×10^−3
29 | CC1(C)CC(Oc2nsnc2N2CCOCC2)C(C)(C)N1O.Cl (centres unmarked) [Compound 32, 4-(4-(1-hydroxy-2,2,5,5-tetramethylpyrrolidin-3-yloxy)-1,2,5-thiadiazol-3-yl)morpholine hydrogen chloride] | ≥ 100 |  | 231.50 ×10^−3 | 985.67 ×10^−3
30 | CC1(C)CC(Oc2nsnc2OC2CC(C)(C)N(O)C(C)(C)C2)CC(C)(C)N1O (as salt: chloride) [Compound 14, 1-hydroxyl-4-(4-(2,2,6,6-tetramethylpiperidin-1-hydroxyl-4-yloxy)-1,2,5-thiadiazol-3-yloxy)-2,2,6,6-tetramethylpiperidine bis-hydrogen chloride] |  | 216.2 °C (dec.) |  | 
31 | CC1(C)CC(Oc2nsnc2N2CCSCC2)CC(C)(C)N1O.Cl [Compound 55, 4-(4-(1-hydroxy-2,2,6,6-tetramethylpiperidin-4-yloxy)-1,2,5-thiadiazol-3-yl)thiomorpholine hydrochloride] |  | 218 °C (dec.) | 285.75 ×10^−3 | 1037.25 ×10^−3
32 | COc1cc(COC2CC(C)(C)N(O)C(C)(C)C2)cc(OC)c1OC.Cl [Compound 48, 1-Hydroxyl-4-(3,4,5-trimethoxybenzyloxy)-2,2,6,6-tetramethylpiperidine hydrochloride] |  |  | 50.67 ×10^−3 | 1118.00 ×10^−3
33 | CC(C)c1nsnc1OCC1=CC(C)(C)N(O)C1(C)C.Cl [Compound 51] |  | 155.7 °C | 71.00 ×10^−3 | 1208.25 ×10^−3
34 | CC1(C)C(CO)=C(c2ccc(F)cc2)C(C)(C)N1O.Cl [Compound 59, (4-(4-fluorophenyl)-1-hydroxy-2,5-dihydro-2,2,5,5-tetramethyl-1H-pyrrol-3-yl)methanol hydrochloride] |  |  | 352.00 ×10^−3 | 1105.00 ×10^−3
35 | CC1(C)CC(NC(=O)CCCCC2CCSS2)CC(C)(C)N1O.Cl (centres unmarked) [Compound 49, 5-(1,2-dithialan-3-yl)-N-(1-hydroxy-2,2,6,6-tetramethylpiperidin-4-yl)pentanamide hydrochloride] |  | 164.7 °C (dec.) | 195.00 ×10^−3 | 1330.25 ×10^−3
36 | CC(C)(C)OC(=O)c1nsnc1OC1CC(C)(C)N(O)C(C)(C)C1.Cl |  | 197 °C (dec.) |  | 
37 | Cc1c(C)c2c(c(C)c1O)CCC(C)(C(=O)NC1CC(C)(C)N(O)C(C)(C)C1)O2.Cl (centres unmarked) |  | 174.9 °C (dec.) |  | 
38 | COc1cc(C2=CC(C)(C)N(O)C(C)(C)C2)cc(OC)c1OC.Cl [Compound 50, 1-Hydroxy-2,3,6-trihydro-4-(3,4,5-trimethoxyphenyl)-2,2,6,6-tetramethylpiperidine hydrochloride] |  |  | 54.50 ×10^−3 | 1226.33 ×10^−3
39 | CC1(C)C=C(CO)C(C)(C)N1O (as salt: chloride) [Compound 8, 2,5-dihydro-2,2,5,5-tetramethyl-1-hydroxyl-1H-pyrrol-3-yl)methanol hydrogen chloride] |  | 141.9 °C (dec.) |  | 
40 | CC1(C)C=C(CC2CNCCO2)C(C)(C)N1O.Cl.Cl (centres unmarked) [Compound 36, ((1-hydroxy-2,5-dihydro-2,2,5,5-tetramethyl-1H-pyrrol-3-yl)methyl)morpholine bis-hydrogen chloride] | 4 |  | 297.00 ×10^−3 | 1110.75 ×10^−3
